Data on twelve compounds can be found in US11130960B2, “Methods for conferring or enhancing herbicide resistance on plants and/or alga with protoporphyrinogen oxidase variants” (FARM HANNONG CO., LTD., priority 2014, dated 2021).

In one assay the test system is CyPPO4. The experiment in a line: Growth inhibition of transformed PPO-deficient E. coli BT3(ΔPPO) on LB agar medium. Type of assay: cell-based, Lyngbya sp. PCC 8106. The settings on record: 37° C., 16~20 hours. The text has this:
(§1) To test herbicide resistance of CyPPO2, CyPPO4, CyPPO8 and CyPPO12 isolated in Example 1, PPO-deficient BT3 E. coli [hereinafter, referred to as BT3(ΔPPO)] was transformed with CyPPO2, CyPPO4, CyPPO8 or CyPPO12 gene, respectively and then cultured in the presence of herbicides to examine growth inhibition of the transformed E. coli. As a negative control, Arabidopsis thaliana-derived wild-type PPO (wild-type AtPPO1) was used, and wild-type AtPPO1 has sensitivity to PPO-based herbicides and its sequence information is available in GeneBank accession no. AX084732 (a nucleotide sequence of the gene is represented by SEQ ID NO: 10, and an amino acid sequence thereof is represented by SEQ ID NO: 9). As a positive control, Mutant AtPPO1 was used, in which amino acid replacements of Y426M (replacement of tyrosine by methionine at position 426) and S305L (replacement of serine by leucine at position 305) occur in the amino acid sequence of the wild-type AtPPO1 (an amino acid sequence is represented by SEQ ID NO: 11) (Li X, Volrath S L., N D B. G., Chilcott C E, Johnson M A, Ward E R, Law M D (2003) Development of protoporphyrinogen oxidase as an efficient selection marker for Agrobacterium tumefaciens-mediated transformation of maize. Plant physiology 133:736-747).
(§2) BT3(ΔPPO) strain was provided by Hokkaido University (Japan) and it is an E. coli strain which is deficient in hemG-type PPO and has Kanamycin resistance (Watanabe et al., (2001) Dual targeting of spinach protoporphyrinogen oxidase II to mitochondria and chloroplasts by alternative use of two in-frame […] codons. JBC 2047420481).
(§3) HVE-50 autoclave from Hirayama, HS2100A electronic scale from Hansung Instrument, CB-30V clean bench from Jeio Tech, JSI-200CL incubator from JSR, 1210 type UV-visible spectrophotometer from Thermo Fisher Scientific, MQ-200 photometer from Apogee, and Bio-Rad MyCycler as PCR machine were used. The autoclave was used under conditions of 121° C. and 15 minutes, and the incubator was used at 37° C. with lighting of 160˜200 μmol m^−2 s^−1 for a culture time of 14˜20 hours. LB medium (10 g/L of Bacto-Tryptone, 5 g/L of Yeast extract, 10 g/L of sodium chloride, 15 g/L of Bacto agar) and an antibiotic Chloramphenicol (Duchefa) were used.
(§4) To clone each of the CyPPO2, CyPPO4, CyPPO8 and CyPPO12 genes isolated and amplified in Example 1 into pACBB (its structure is shown in FIG. 2), 10 μl of a solution containing 4 μl of each PPO gene, […], 1 μl of 10× buffer A, 1 μl of 10× buffer B, 1 μl of ligase (RBC, 3 unit/μl) was prepared and allowed to react at 22° C. for 30 minutes. The reaction solution was added to 100 μl of DH5 alpha competent cells, and allowed to react on ice for 20 minutes and then left at 42° C. for 40 seconds. Thereafter, the cells were left on ice for 2 minutes, and then 1 ml of LB broth was added thereto, followed by incubation with shaking at 37° C. for 1 hour. The strains having each gene insert in the culture medium were harvested, and then cultured on LB agar medium containing chloramphenicol.
(§5) For seed culture of E. coli transformed with respective genes, single colonies thereof were cultured in 3 ml of LB broth containing chloramphenicol overnight, and each 100 μl thereof was sub-cultured in 3 ml of fresh LB broth until absorbance (OD600) reached 0.5˜1. They were diluted with LB broth to absorbance (OD600) of 0.5. 10-fold dilution of this diluted solution was performed with LB broth five times. Next, 10 μl of the diluted solution of the transformed E. coli culture was dropped on LB agar medium (petri dish) containing chloramphenicol and a variety of herbicide stocks at different concentrations (0˜400 μM). The LB agar plates were incubated at 37° C. At 16˜20 hours after culture, growth inhibition was examined with the naked eye. Further, growth inhibition of the strains cultured in a medium containing Tiafenacil was examined under light (lighting of 169 μmol m^−2s^−1) and dark conditions.

Another assay has as its target T1, Mutant AtPPO1 (Arabidopsis thaliana, UniProt P55826, S305L/Y426M).
T1 construct: expressed in transfected cells; host or cells: E. coli BT3(ΔPPO), pACBB vector
The assay is described as above. Type of assay: cell-based. The settings on record: 37° C., 16~20 hours.
Source text: as §1, §2, §3, §4, §5

Another assay relates to CyPPO12. Described as above. In kind it is cell-based, Microcoleus vaginatus. The settings on record: 37° C., 16~20 hours.
Source text: as §1, §2, §3, §4, §5

The next assay has as its system CyPPO4 transformant. Nature of the assay: Herbicide spray test on Arabidopsis thaliana T2 plants. Type of assay: in vivo. Conditions: 2-3 ml of 0.5 μM Tiafenacil, 1 μM Saflufenacil, or 3 μM Fomesafen per plant. The protocol:
(§6) To examine whether herbicide resistance traits are maintained in the next generations of plants, respective T2 generation plants of Arabidopsis thaliana which were transformed with CyPPO2, CyPPO4 and CyPPO8 genes were subjected to an herbicide resistance test. 2-3 ml of 0.5 μM Tiafenacil, 1 μM Saflufenacil, or 3 μM Fomesafen was sprayed onto each Arabidopsis thaliana plant grown for about 4 weeks.

Another assay deals with CyPPO2 transformant. Described as above. Type of assay: in vivo. The settings on record: 2-3 ml of 0.5 μM Tiafenacil, 1 μM Saflufenacil, or 3 μM Fomesafen per plant. The protocol:
as §6

For the next assay, the system named is CyPPO8 transformant. Described as above. Type of assay: in vivo. Conditions: 2-3 ml of 0.5 μM Tiafenacil, 1 μM Saflufenacil, or 3 μM Fomesafen per plant. As to the method: as §6
Another assay concerns the target T2, wild-type AtPPO1 (Arabidopsis thaliana, UniProt P55826).
T2 construct: expressed in transfected cells; host or cells: E. coli BT3(ΔPPO), pACBB vector
T2 sequence (P55826 35-537): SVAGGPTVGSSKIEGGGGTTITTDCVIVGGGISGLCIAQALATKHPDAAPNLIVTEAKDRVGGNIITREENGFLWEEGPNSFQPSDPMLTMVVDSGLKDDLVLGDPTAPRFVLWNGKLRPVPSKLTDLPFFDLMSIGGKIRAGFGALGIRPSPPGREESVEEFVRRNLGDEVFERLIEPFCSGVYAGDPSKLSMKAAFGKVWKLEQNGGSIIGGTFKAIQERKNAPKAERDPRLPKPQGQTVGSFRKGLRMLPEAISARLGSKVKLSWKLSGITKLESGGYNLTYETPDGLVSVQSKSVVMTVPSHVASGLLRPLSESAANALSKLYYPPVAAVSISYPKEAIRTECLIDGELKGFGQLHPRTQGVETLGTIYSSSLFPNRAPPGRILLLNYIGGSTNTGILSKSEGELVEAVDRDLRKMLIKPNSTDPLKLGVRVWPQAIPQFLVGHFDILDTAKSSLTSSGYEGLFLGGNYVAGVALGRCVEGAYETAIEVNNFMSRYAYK
The experiment in a line: Growth inhibition of transformed PPO-deficient E. coli BT3(ΔPPO) on LB agar medium. In kind it is cell-based.
Source text: as §1, §2, §3, §4, §5

[1] abbreviates: LB agar medium, 37° C., 16~20 hours.

T1 sequence (P55826 35-537 S305L/Y426M): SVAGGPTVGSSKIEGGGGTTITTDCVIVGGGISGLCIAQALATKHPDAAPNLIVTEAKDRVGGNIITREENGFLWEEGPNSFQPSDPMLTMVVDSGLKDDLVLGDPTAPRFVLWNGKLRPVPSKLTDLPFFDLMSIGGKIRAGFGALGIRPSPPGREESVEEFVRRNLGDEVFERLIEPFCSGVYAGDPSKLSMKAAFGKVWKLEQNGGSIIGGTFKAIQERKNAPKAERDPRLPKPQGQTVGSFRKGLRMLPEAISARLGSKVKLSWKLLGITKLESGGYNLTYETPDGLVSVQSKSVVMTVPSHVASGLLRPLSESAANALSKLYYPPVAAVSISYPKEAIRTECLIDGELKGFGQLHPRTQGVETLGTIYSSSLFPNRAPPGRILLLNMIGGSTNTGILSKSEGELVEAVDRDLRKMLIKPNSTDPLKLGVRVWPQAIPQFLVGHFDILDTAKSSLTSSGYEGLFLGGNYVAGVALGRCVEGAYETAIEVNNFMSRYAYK

For the compound `O=C(O)c1cc(Oc2ccc(C(F)(F)F)cc2Cl)ccc1[N+](=O)[O-]` [Acifluorfen], the “concentration at which growth inhibition was hardly observed” value with CyPPO4 is 400 µM.
As to `CCOc1cc(Oc2ccc(C(F)(F)F)cc2Cl)ccc1[N+](=O)[O-]` [Oxyfluorfen], the “concentration at which growth inhibition was hardly observed” value in the assay on CyPPO4 stood at 400 µM. The “concentration at which growth inhibition began” value on Mutant AtPPO1 came out at 5 µM.
For the compound `COC(=O)CCNC(=O)C(C)Sc1cc(-n2c(=O)cc(C(F)(F)F)n(C)c2=O)c(F)cc1Cl` (stereo not drawn) [Tiafenacil], the “concentration at which growth inhibition was not / hardly observed” value in the assay on CyPPO12 and at Mutant AtPPO1 was 25 µM in each case. Further, the “outcome of plants at 7 days after spraying” value (“outcome of plants at 7 days” below) with CyPPO4 transformant, in the assay on CyPPO2 transformant and in the assay on CyPPO8 transformant was “continued to grow without damage” each time. Besides, the “concentration at which growth inhibition was hardly observed” value in the assay with CyPPO4 came out at 25 µM. For the same compound, the “growth at 1 μM under dark condition” value at wild-type AtPPO1 (agar medium, 1 μM, dark condition) is on record as “rather maintained”. Moreover, the “concentration at which growth was completely inhibited” value at wild-type AtPPO1 (agar medium, both light and dark conditions) was no less than 5 µM. For the same compound, the “concentration at which growth was almost completely inhibited” value at wild-type AtPPO1 (agar medium, light condition) worked out at 1 µM.
As to `CC(C)Oc1cc(-n2nc(C(C)(C)C)oc2=O)c(Cl)cc1Cl` [Oxadiazon], the “concentration at which growth inhibition was not / hardly observed” value in the assay with CyPPO12 and on Mutant AtPPO1 was 25 µM in each case. Also, the “concentration at which growth inhibition began” value on wild-type AtPPO1 (setting [1]) is 0.5 µM.
As to `CCOC(=O)COc1cc(-c2nn(C)c(OC(F)F)c2Cl)c(F)cc1Cl` [Pyraflufen-ethyl], the “concentration at which growth inhibition was not / hardly observed” value in the assay with CyPPO12 and on Mutant AtPPO1 was 25 µM each time. For the same compound, on wild-type AtPPO1 (setting [1]), the “concentration at which growth inhibition began” value is 0.5 µM.
Regarding `C=CCOC(=O)C(C)(C)OC(=O)c1cc(-n2c(=O)cc(C(F)(F)F)n(C)c2=O)ccc1Cl` [Butafenacil], the “concentration at which growth inhibition was not / hardly observed” value at Mutant AtPPO1 stood at 25 µM.
Consider `CC(C)=C1OC(=O)N(c2cc(OC3CCCC3)c(Cl)cc2F)C1=O` [Pentoxazone], for which the “concentration at which growth inhibition was not / hardly observed” value in the assay on CyPPO12 and on Mutant AtPPO1 was 25 µM in each case.
Turning to `C#CCN(C)c1c(C#N)cnn1-c1nn2c(c1Cl)CCCC2` [Pyraclonil], the “concentration at which growth inhibition was not / hardly observed” value in the assay on CyPPO12 and at Mutant AtPPO1 was 25 µM each time. For the same compound, the “concentration at which the strain hardly grew” value on wild-type AtPPO1 (setting [1]) is 25 µM.
As to `C#CCN1C(=O)COc2cc(F)c(N3C(=O)C4=C(CCCC4)C3=O)cc21` [Flumioxazin], the “concentration at which growth inhibition was not / hardly observed” value in the assay on CyPPO12 amounted to 25 µM. In the assay on CyPPO4, the “concentration at which growth inhibition was hardly observed” value worked out at 25 µM.
Regarding `CS(=O)(=O)NC(=O)c1cc(Oc2ccc(C(F)(F)F)cc2Cl)ccc1[N+](=O)[O-]` [Fomesafen], the “outcome of plants at 7 days” value in the assay on CyPPO4 transformant, in the assay on CyPPO2 transformant and with CyPPO8 transformant was “continued to grow without damage” each time. In the assay on CyPPO4, the “concentration at which growth inhibition was hardly observed” value is 400 µM. Moreover, on Mutant AtPPO1, the “concentration at which growth inhibition was not / hardly observed” value is no more than 25 µM. Also, at wild-type AtPPO1 (setting [1]), the “concentration at which growth inhibition was observed” value stood at 5 µM.
`Cc1nn(-c2cc(NS(C)(=O)=O)c(Cl)cc2Cl)c(=O)n1C(F)F` [Sulfentrazone]: the “concentration at which growth inhibition was not / hardly observed” value with CyPPO12 and on Mutant AtPPO1 was 25 µM throughout. Further, the “concentration at which growth inhibition was hardly observed” value in the assay on CyPPO4 came out at 400 µM. Moreover, the “concentration at which growth inhibition began” value on wild-type AtPPO1 (setting [1]) amounted to 0.5 µM.
For the compound `CC(C)N(C)S(=O)(=O)NC(=O)c1cc(-n2c(=O)cc(C(F)(F)F)n(C)c2=O)c(F)cc1Cl` [Saflufenacil], the “concentration at which growth inhibition was not / hardly observed” value in the assay with CyPPO12 and at Mutant AtPPO1 was 25 µM each time. The “outcome of plants at 7 days” value in the assay on CyPPO4 transformant, with CyPPO2 transformant and in the assay with CyPPO8 transformant was “continued to grow without damage” in each case. The “concentration at which growth inhibition was hardly observed” value with CyPPO4 is 25 µM.
